# From US20080161248A1, “Methods and Compositions for Therapeutic Treatment” (priority 2006, published 2008)
# Like-named read-outs stand apart in the source and are kept apart here.
# Tests used:
# [1] = tested on: LEW responder splenocytes with irradiated BN stimulators (lymphocyte proliferation); assay: Mixed lymphocyte reaction (MLR) with spleen cells of treated Lewis rats; format: cell-based, rat; conditions: Lewis rats 1 mg/kg i.v.; spleens 4 hr after dosing; R:S ratios 0.5:1, 1:1, 5:1
# Description: Animals: 8-9 weeks-old Lewis and Brown Norway male rats were obtained from Charles River Laboratories. […] Treatment: Lewis rats were treated with different single doses of LNS 0694i.p. 30 minutes prior to single i.v. injections of tacrolimus at a concentration of 1 mg/kg as described in the table below. Spleens were collected at 4 hr after administration of FK506 for use in the in vitro mixed lymphocyte reaction (MLR) and Con A assays. […] Mixed lymphocyte reactions: A single cell suspension of the spleen of each rat on test (LEW, responder) was prepared with a Dounce homogenizer and wash-medium. The cell suspension was depleted of red blood cells (treatment with NH4CL/Tris buffer) and washed twice with wash medium before resuspending in complete medium (CM; […] A single cell suspension of splenocytes from five Brown Norway rats (BN, stimulators) was prepared with the same method. The BN splenocytes were pooled and irradiated with 1,500-2,000 rad (cesium source) before use. Varying numbers of responder cells were mixed with a constant number of stimulators (105) in 96-well, U-bottom cell culture plates to give a final responder:stimulator (R:S) ratio of 10:1,5: 1, 1:1 and 0.5:1 in 200 μl CM. […] The results of the MLR assays [thymidine incorporation as counts per minute (CPM)] are expressed as mean ±SD.
# [2] = tested on: mouse spleen cells, response to Con A; assay: In vitro Con A assay on spleen cells; format: cell-based; conditions: high ([…]10^6 cells/well) and low (8×10^5 cells/well) cell concentration
# Description: Animals: 8-9 weeks-old Lewis and Brown Norway male rats were obtained from Charles River Laboratories. General procedures for animal care and housing was in accordance with the National Research Council (NRC) Guide for the Care and Use of Laboratory Animals (1996) and the Animal Welfare Standards incorporated in 9 CFR Part 3, 1991.
# Spleens were collected for use in in vitro Con A and LPS assays.
# Results: FIGS. 8 and 9 show the effect of quercetin and tacrolimus on response of mouse spleen cells to Con A at a high (1.6×10^6 cells/well) and low (8×10^5 cells/well) cell concentration, respectively.
# Spleen cells were treated with Con A in the presence of vehicle, tacrolimus, quercetin or two different concentrations of tacrolimus (10^−8.2 and 10^−8.5 M) and increasing doses of quercetin at a high cell concentration (FIG. 14) or at a low cell concentration (FIG. 15). […] There was no significance difference between the effect of quercetin on tacrolimus induced cell suppression in vitro at the different concentrations used for quercetin.
# [3] = liver transplantation, U.S. study, 12-month post-transplant; cited from earlier work
# [4] = liver transplantation, European study, 12-month post-transplant; cited from earlier work
# [5] = cited from earlier work
# [6] = US heart transplantation study; cited from earlier work
# murine or human T cells = conditions: cited from earlier work
# [7] = cited from earlier work; remark: listed apart in the source
# [8] = mice, mdr1 gene depleted; cited from earlier work
# [9] = cited from earlier work; remark: listed apart in the source
compound,measurement,setting,value
"C=CC[C@@H]1/C=C(\C)C[C@H](C)C[C@H](OC)C2O[C@@](O)(C(=O)C(=O)N3CCCC[C@H]3C(=O)O[C@H](/C(C)=C/[C@@H]3CC[C@@H](O)[C@H](OC)C3)[C@H](C)[C@@H](O)CC1=O)[C@H](C)C[C@@H]2OC (relative stereo) [Prograf, [3S-[3R[E(1S*,3S*,4S*)], 4S*,5R*,8S*,9E,12R*,14R*,15S*,16R*,18S*,19S*,26aR*]]-,6,8,11,12,13,14,15,16,17,18,19,24,25,26,26a-hexadecahydro-5,19-dihydroxy-3-[2-(4-hydroxy-3-methoxycyclohexyl)-1-methylethenyl]-14,16-dimethoxy-4,10,12,18-tetramethyl-8-(2-propenyl)-15,19-epoxy-3H-pyrido[2,1-c][1,4]oxaazacyclotricosine-1,7,20,21 (4H,23H)-tetrone, monohydrate]","effect on MLR (lymphocyte proliferation, thymidine incorporation)",[1],inhibited MLR
same,effect on response of spleen cells to Con A (proliferation),[2],inhibited Con A-induced proliferation in a dose dependent manner
same,Adverse event: Abdominal Pain,[3],59%
same,Adverse event: Anemia,[3],47%
same,Adverse event: Anorexia,[3],34%
same,Adverse event: Ascites,[3],27%
same,Adverse event: Asthenia,[3],52%
same,Adverse event: Atelectasis,[3],28%
same,Adverse event: BUN Increased,[3],30%
same,Adverse event: Back Pain,[3],30%
same,Adverse event: Constipation,[3],24%
same,Adverse event: Creatinine Increased,[3],39%
same,Adverse event: Diarrhea,[3],72%
same,Adverse event: Dyspnea,[3],29%
same,Adverse event: Fever,[3],48%
same,Adverse event: Headache,[3],64%
same,Adverse event: Hyperglycemia,[3],47%
same,Adverse event: Hyperkalemia,[3],45%
same,Adverse event: Hypertension,[3],47%
same,Adverse event: Hypokalemia,[3],29%
same,Adverse event: Hypomagnesemia,[3],48%
same,Adverse event: Insomnia,[3],64%
same,Adverse event: Kidney Function Abnormal,[3],40%
same,Adverse event: LFT Abnormal,[3],36%
same,Adverse event: Leukocytosis,[3],32%
same,Adverse event: Nausea,[3],46%
same,Adverse event: Oliguria,[3],18%
same,Adverse event: Pain,[3],63%
same,Adverse event: Paresthesia,[3],40%
same,Adverse event: Peripheral Edema,[3],26%
same,Adverse event: Pleural Effusion,[3],30%
same,Adverse event: Pruritus,[3],36%
same,Adverse event: Rash,[3],24%
same,Adverse event: Thrombocytopenia,[3],24%
same,Adverse event: Tremor,[3],56%
same,Adverse event: Urinary Tract Infection,[3],16%
same,Adverse event: Vomiting,[3],27%
same,Adverse event: Abdominal Pain,[4],29%
same,Adverse event: Anemia,[4],5%
same,Adverse event: Anorexia,[4],7%
same,Adverse event: Ascites,[4],7%
same,Adverse event: Asthenia,[4],11%
same,Adverse event: Atelectasis,[4],5%
same,Adverse event: BUN Increased,[4],12%
same,Adverse event: Back Pain,[4],17%
same,Adverse event: Constipation,[4],23%
same,Adverse event: Creatinine Increased,[4],24%
same,Adverse event: Diarrhea,[4],37%
same,Adverse event: Dyspnea,[4],5%
same,Adverse event: Fever,[4],19%
same,Adverse event: Headache,[4],37%
same,Adverse event: Hyperglycemia,[4],33%
same,Adverse event: Hyperkalemia,[4],13%
same,Adverse event: Hypertension,[4],38%
same,Adverse event: Hypokalemia,[4],13%
same,Adverse event: Hypomagnesemia,[4],16%
same,Adverse event: Insomnia,[4],32%
same,Adverse event: Kidney Function Abnormal,[4],36%
same,Adverse event: LFT Abnormal,[4],6%
same,Adverse event: Leukocytosis,[4],8%
same,Adverse event: Nausea,[4],32%
same,Adverse event: Oliguria,[4],19%
same,Adverse event: Pain,[4],24%
same,Adverse event: Paresthesia,[4],17%
same,Adverse event: Peripheral Edema,[4],12%
same,Adverse event: Pleural Effusion,[4],36%
same,Adverse event: Pruritus,[4],15%
same,Adverse event: Rash,[4],10%
same,Adverse event: Thrombocytopenia,[4],14%
same,Adverse event: Tremor,[4],48%
same,Adverse event: Urinary Tract Infection,[4],21%
same,Adverse event: Vomiting,[4],14%
same,patients with trough concentrations within the pre-defined target range,"[5]; European heart study, target range 5-15 ng/mL",74-86%
same,Adverse event: Tremor,"[5]; heart transplant patients, European trial",15%
same,"Other targeted treatment-emergent adverse events (Cushingoid features, impaired wound healing, hyperkalemia, Candida infection, CMV infection/syndrome), rate",[6],less than 15%
same,concentrations inhibiting proliferation of stimulated T cells,"murine or human T cells; T cells stimulated by specific antigens, antibodies to TCR/CD3 or mitogenic lectins",subnanomolar
same,potency relative to cyclosporin A (CsA),"murine or human T cells; higher potency than CsA, disrupting calcium signaling leading to lymphokine production",50-100 fold
same,"Neurotoxicity, including tremor, headache, and other changes in motor function, mental status, and sensory function","[7]; liver transplant recipients, two randomized studies",approximately 55%
same,proportion of patients reporting more than one adverse event,[7]; two randomized comparative liver transplant trials,99.8%
same,concentration in the brain,[8],markedly increased
same,aqueous solubility,[9],poor
